Laboratory results reported in the NIST ThermoML archive (doi:10.1021/acs.jced.7b00106).
Several values for one entry are separate records, joined by “and”; a condition that tells them apart may be missing. Identical values can stand only once.

Conditions: Hot wire method

FC(F)(F)/C=C/Cl [(E)-1-chloro-3,3,3-trifluoroprop-1-ene]
Conditions	thermal conductivity
421.68 K, 2403 kPa, Fluid (supercritical or subcritical phases)	0.02418 W/m/K
421.69 K, 1998 kPa, Fluid (supercritical or subcritical phases)	0.02232 W/m/K
421.7 K, 1999 kPa, Fluid (supercritical or subcritical phases)	0.02203 W/m/K
421.71 K, 1562 kPa, Fluid (supercritical or subcritical phases)	0.02117 W/m/K
421.72 K, 2307 kPa, Fluid (supercritical or subcritical phases)	0.02349 W/m/K
421.74 K, 801 kPa, Fluid (supercritical or subcritical phases)	0.0208 W/m/K
421.75 K, 1862 kPa, Fluid (supercritical or subcritical phases)	0.02184 W/m/K
421.75 K, 1863 kPa, Fluid (supercritical or subcritical phases)	0.02174 W/m/K
421.77 K, 1401 kPa, Fluid (supercritical or subcritical phases)	0.02096 W/m/K
421.77 K, 1403 kPa, Fluid (supercritical or subcritical phases)	0.02094 W/m/K
421.78 K, 3760 kPa, Liquid	0.05136 W/m/K and 0.05147 W/m/K
421.79 K, 2203 kPa, Fluid (supercritical or subcritical phases)	0.02296 W/m/K and 0.02299 W/m/K
421.8 K, 3309 kPa, Liquid	0.05069 W/m/K
421.81 K, 1723 kPa, Fluid (supercritical or subcritical phases)	0.02142 W/m/K
421.81 K, 1724 kPa, Fluid (supercritical or subcritical phases)	0.02139 W/m/K
421.81 K, 2616 kPa, Liquid	0.04986 W/m/K and 0.05013 W/m/K
421.81 K, 2914 kPa, Liquid	0.05019 W/m/K and 0.05004 W/m/K
421.81 K, 3308 kPa, Liquid	0.05077 W/m/K
421.83 K, 1221 kPa, Fluid (supercritical or subcritical phases)	0.0209 W/m/K
421.84 K, 2100 kPa, Fluid (supercritical or subcritical phases)	0.02258 W/m/K
421.85 K, 2099 kPa, Fluid (supercritical or subcritical phases)	0.02249 W/m/K
421.88 K, 1030 kPa, Fluid (supercritical or subcritical phases)	0.02077 W/m/K
421.88 K, 1033 kPa, Fluid (supercritical or subcritical phases)	0.02075 W/m/K
421.88 K, 1998 kPa, Fluid (supercritical or subcritical phases)	0.0222 W/m/K and 0.02217 W/m/K
421.91 K, 1563 kPa, Fluid (supercritical or subcritical phases)	0.02121 W/m/K
421.91 K, 2306 kPa, Fluid (supercritical or subcritical phases)	0.02366 W/m/K
421.91 K, 2307 kPa, Fluid (supercritical or subcritical phases)	0.02365 W/m/K
421.92 K, 1563 kPa, Fluid (supercritical or subcritical phases)	0.02116 W/m/K
421.94 K, 802 kPa, Fluid (supercritical or subcritical phases)	0.02077 W/m/K
421.95 K, 1862 kPa, Fluid (supercritical or subcritical phases)	0.02178 W/m/K and 0.0218 W/m/K
421.97 K, 2203 kPa, Fluid (supercritical or subcritical phases)	0.02307 W/m/K
421.98 K, 1401 kPa, Fluid (supercritical or subcritical phases)	0.02101 W/m/K
421.98 K, 1403 kPa, Fluid (supercritical or subcritical phases)	0.02116 W/m/K
421.98 K, 2204 kPa, Fluid (supercritical or subcritical phases)	0.02311 W/m/K
421.99 K, 3758 kPa, Liquid	0.05138 W/m/K
421.99 K, 4307 kPa, Liquid	0.05224 W/m/K
422 K, 3762 kPa, Liquid	0.05146 W/m/K
422 K, 4305 kPa, Liquid	0.0522 W/m/K
422.01 K, 1724 kPa, Fluid (supercritical or subcritical phases)	0.02156 W/m/K and 0.02145 W/m/K
422.01 K, 2914 kPa, Liquid	0.05029 W/m/K
422.01 K, 3308 kPa, Liquid	0.05079 W/m/K
422.01 K, 3310 kPa, Liquid	0.05082 W/m/K
422.02 K, 2616 kPa, Liquid	0.05008 W/m/K and 0.05005 W/m/K
422.02 K, 2914 kPa, Liquid	0.05026 W/m/K
422.03 K, 2099 kPa, Fluid (supercritical or subcritical phases)	0.02265 W/m/K
422.04 K, 2099 kPa, Fluid (supercritical or subcritical phases)	0.02262 W/m/K
422.06 K, 1218 kPa, Fluid (supercritical or subcritical phases)	0.02083 W/m/K
422.06 K, 1220 kPa, Fluid (supercritical or subcritical phases)	0.0209 W/m/K
422.08 K, 1998 kPa, Fluid (supercritical or subcritical phases)	0.0223 W/m/K
422.1 K, 1030 kPa, Fluid (supercritical or subcritical phases)	0.02079 W/m/K
422.1 K, 1031 kPa, Fluid (supercritical or subcritical phases)	0.02076 W/m/K
422.12 K, 1562 kPa, Fluid (supercritical or subcritical phases)	0.02118 W/m/K
422.16 K, 1862 kPa, Fluid (supercritical or subcritical phases)	0.02194 W/m/K
422.16 K, 1863 kPa, Fluid (supercritical or subcritical phases)	0.02189 W/m/K
422.18 K, 803 kPa, Fluid (supercritical or subcritical phases)	0.0208 W/m/K
422.18 K, 4947 kPa, Liquid	0.05308 W/m/K
422.18 K, 4948 kPa, Liquid	0.05312 W/m/K
422.2 K, 1401 kPa, Fluid (supercritical or subcritical phases)	0.02102 W/m/K
422.2 K, 1402 kPa, Fluid (supercritical or subcritical phases)	0.02108 W/m/K
422.21 K, 3760 kPa, Liquid	0.05155 W/m/K and 0.05149 W/m/K
422.21 K, 4301 kPa, Liquid	0.05224 W/m/K
422.22 K, 4305 kPa, Liquid	0.05226 W/m/K
422.23 K, 1723 kPa, Fluid (supercritical or subcritical phases)	0.02155 W/m/K
422.23 K, 3307 kPa, Liquid	0.05087 W/m/K
422.24 K, 1723 kPa, Fluid (supercritical or subcritical phases)	0.0216 W/m/K
422.24 K, 3310 kPa, Liquid	0.05093 W/m/K
422.25 K, 1221 kPa, Fluid (supercritical or subcritical phases)	0.0209 W/m/K
422.25 K, 2616 kPa, Liquid	0.05034 W/m/K
422.25 K, 2913 kPa, Liquid	0.05043 W/m/K
422.25 K, 2914 kPa, Liquid	0.05049 W/m/K
422.33 K, 1032 kPa, Fluid (supercritical or subcritical phases)	0.02082 W/m/K
422.33 K, 1561 kPa, Fluid (supercritical or subcritical phases)	0.02131 W/m/K
422.33 K, 6610 kPa, Liquid	0.05507 W/m/K
